The source of these data is ChEMBL document CHEMBL3098094, “Synthesis and biological evaluation of novel N-substituted 1H-dibenzo[a,c]carbazole derivatives of dehydroabietic acid as potential antimicrobial agents” (2014).

Converted amounts (≈) assume the structure as drawn.

Holding throughout (assay type): functional
The test system of one test is Candida albicans. Kind of test: Antimicrobial activity against Candida albicans CGMCC2.2086 after 48 hrs by twofold serial microdilution method. To be noted: CGMCC2.2086, 48 h. Background: Dilution methods test growth across graded concentrations, often in twofold steps.
A further test has as its system Aspergillus niger. Kind of test: Antimicrobial activity against Aspergillus niger CGMCC3.316 after 48 hrs by twofold serial microdilution method. The conditions noted are these: CGMCC3.316, 48 h.
The test system of the next test is Escherichia coli. Kind of test: Antimicrobial activity against Escherichia coli CGMCC1.1571 after 24 hrs by twofold serial microdilution method. The conditions noted are these: CGMCC1.1571, 24 h.
In a further test the test system is Bacillus subtilis. As to the kind of experiment: Antimicrobial activity against Bacillus subtilis CGMCC1.1162 after 24 hrs by twofold serial microdilution method. To be noted: CGMCC1.1162, 24 h.
The test system of a further test is Candida tropicalis. Kind of test: Antimicrobial activity against Candida tropicalis CGMCC2.3967 after 48 hrs by twofold serial microdilution method. To be noted: CGMCC2.3967, 48 h.
The next test has as its system Pseudomonas fluorescens. As to the kind of experiment: Antimicrobial activity against Pseudomonas fluorescens CGMCC1.1828 after 24 hrs by twofold serial microdilution method. The conditions noted are these: CGMCC1.1828, 24 h.
A further test concerns Staphylococcus aureus. Kind of test: Antimicrobial activity against Staphylococcus aureus CGMCC1.1361 after 24 hrs by twofold serial microdilution method. The conditions noted are these: CGMCC1.1361, 24 h.

For the compound `COC(=O)[C@]1(C)CCC[C@]2(C)c3ccc(C(C)C)cc3-c3[nH]c4ccccc4c3[C@@H]12`, the MIC (as a rule, the least concentration at which growth counts as inhibited) is greater than 100 µg/mL in the test with Candida albicans; greater than 100 µg/mL against Aspergillus niger; greater than 100 µg/mL in the test on Escherichia coli; 31.2 µg/mL (≈ 77.7 µM) against Bacillus subtilis; greater than 100 µg/mL in the test on Candida tropicalis; 62.5 µg/mL (≈ 156 µM) in the test on Pseudomonas fluorescens. In addition, the MIC with Staphylococcus aureus worked out at 62.5 µg/mL (≈ 156 µM).
